Molecular target: T1, human neurokinin-1 receptor (NK1R) (Homo sapiens, UniProt P25103)
T1 construct: expressed in transfected cells
Assay: 125I-substance P binding assay of human NK1R expressed in COS or CHO cells
Conditions: competition with 125I-substance P
Method: Receptor Expression in COS: To express the cloned human neurokinin-1 receptor (NK1R) transiently in COS, the cDNA for the human NK1R was cloned into the expression vector pCDM9 which was derived from pCDM8 (INVITROGEN) by inserting the ampicillin resistance gene (nucleotide 1973 to 2964 from BLUESCRIPT SK+) into the Sac II site. Transfection of 20 ug of the plasmid DNA into 10 million COS cells was achieved by electroporation in 800 ul of transfection buffer (135 mM NaCl, 1.2 mM CaCl2, 1.2 mM MgCl2, 2.4 mM K2HPO4, 0.6 mM KH2PO4, 10 mM glucose, 10 mM HEPES pH 7.4) at 260 V and 950 uF using the IBI GENEZAPPER (IBI, New Haven, Conn.). The cells were incubated in 10% fetal calf serum, 2 mM glutamine, 100 U/ml penicillin-streptomycin, and 90% DMEM media (GIBCO, Grand Island, N.Y.) in 5% CO2 at 37° C. for three days before the binding assay.
Stable Expression in CHO: To establish a stable cell line expressing the cloned human NK1R, the cDNA was subcloned into the vector pRcCMV (INVITROGEN). Transfection of 20 ug of the plasmid DNA into CHO cells was achieved by electroporation in 800 ul of transfection buffer supplemented with 0.625 mg/ml Herring sperm DNA at 300 V and 950 uF using the IBI GENEZAPPER (IBI). The transfected cells were incubated in CHO media [10% fetal calf serum, 100 U/ml penicillin-streptomycin, 2 mM glutamine, 1/500 hypoxanthine-thymidine (ATCC), 90% IMDM media (JRH BIOSCIENCES, Lenexa, Kans.), 0.7 mg/ml G418 (GIBCO)] in 5% CO2 at 37° C. until colonies were visible. Each colony was separated and propagated. The cell clone with the highest number of human NK1R was selected for subsequent applications such as drug screening.
Assay Protocol using COS or CHO: The binding assay of human NK1R expressed in either COS or CHO cells is based on the use of ^125I-substance P (^125I-SP, from DU PONT, Boston, Mass.) as a radioactively labeled ligand which competes with unlabeled substance P or any other ligand for binding to the human NK1R. Monolayer cell cultures of COS or CHO were dissociated by the non-enzymatic solution (SPECIALTY MEDIA, Lavallette, N.J.) and resuspended in appropriate volume of the binding buffer (50 mM Tris pH 7.5, 5 mM MnCl2, 150 mM NaCl, 0.04 mg/ml bacitracin, 0.004 mg/ml leupeptin, 0.2 mg/ml BSA, 0.01 mM phosphoramidon) such that 200 ul of the cell suspension would give rise to about 10,000 cpm of specific ^125I-SP binding (approximately 50,000 to 200,000 cells). In the binding assay, 200 ul of cells were added to a tube containing 20 ul of 1.5 to 2.5 nM of ^125I-SP and 20 ul of unlabeled substance P or any other test compound. The tubes were incubated at 4° C. or at room temperature for 1 hour with gentle shaking. The bound radioactivity was separated from unbound radioactivity by GF/C filter (BRANDEL, Gaithersburg, Md.) which was pre-wetted with 0.1% polyethylenimine. The filter was washed with 3 ml of wash buffer (50 mM Tris pH 7.5, 5 mM MnCl2, 150 mM NaCl) three times and its radioactivity was determined by gamma counter. The activation of phospholipase C by NK1R may also be measured in CHO cells expressing the human NK1R by determining the accumulation of inositol monophosphate which is a degradation product of IP3. CHO cells are seeded in 12-well plate at 250,000 cells per well. After incubating in CHO media for 4 days, cells are loaded with 0.025 uCi/ml of ^3H-myoinositol by overnight incubation. The extracellular radioactivity is removed by washing with phosphate buffered saline. LiCl is added to the well at final concentration of 0.1 mM with or without the test compound, and incubation is continued at 37° C. for […]. Substance P is added to the well at final concentration of 0.3 nM to activate the human NK1R. After 30 min of incubation at 37° C., the media is removed and 0.1 N HCl is added. Each well is sonicated at 4° C. and extracted with CHCl3/methanol (1:1). The aqueous phase is applied to a 1 ml Dowex AG 1X8 ion exchange column. […]

T1 sequence (P25103 whole entry): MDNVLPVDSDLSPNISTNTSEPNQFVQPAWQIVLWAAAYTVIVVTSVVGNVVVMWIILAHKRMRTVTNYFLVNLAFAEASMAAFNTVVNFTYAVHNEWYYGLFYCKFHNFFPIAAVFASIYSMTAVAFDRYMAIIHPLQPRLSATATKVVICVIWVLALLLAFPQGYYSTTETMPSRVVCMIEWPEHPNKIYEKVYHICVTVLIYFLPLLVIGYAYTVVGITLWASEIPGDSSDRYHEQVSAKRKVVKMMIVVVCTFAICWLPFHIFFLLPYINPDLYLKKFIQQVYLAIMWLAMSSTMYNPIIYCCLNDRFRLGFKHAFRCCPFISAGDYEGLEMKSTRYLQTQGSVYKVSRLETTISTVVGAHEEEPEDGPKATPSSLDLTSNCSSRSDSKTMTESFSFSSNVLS

SMILES	IC50 [nM]
Cc1ccccc1[C@H]1[C@@H]2CN(C(C)C)C[C@H]2CCN1C(=O)N(C)[C@H](C)c1cc(C(F)(F)F)cc(C(F)(F)F)c1 [Example 14, (3aS,4R,7aS)-N-{(1R)-1-[3,5-bis(trifluoromethyl)phenyl]ethyl}-2-isopropyl-N-methyl-4-(2-methylphenyl)octahydro-5H-pyrrolo[3,4-c]pyridine-5-carboxamide]	0.044
CC(c1cc(C(F)(F)F)cc(C(F)(F)F)c1)N(C)C(=O)N1CC[C@@H]2CN(C(=O)C3CCOCC3)C[C@H]2[C@@H]1c1ccc(F)cc1 (mixture of isomers) [Example 7, (3aSR,4RS,7aSR)-N-{1-[3,5-bis(trifluoromethyl)phenyl]ethyl}-4-(4-fluorophenyl)-N-methyl-2-(tetrahydro-2H-pyran-4-ylcarbonyl)octahydro-5H-pyrrolo[3,4-c]pyridine-5-carboxamide]	0.53
Cc1ccccc1[C@H]1[C@@H]2CN(C3=CC(=O)CC3)C[C@H]2CCN1C(=O)N(C)[C@H](C)c1cc(C(F)(F)F)cc(C(F)(F)F)c1 [Example 10, (3aS,4R,7aS)-N-{(1R)-1-[3,5-bis(trifluoromethyl)phenyl]ethyl}-N-methyl-4-(2-methylphenyl)-2-(3-oxocyclopent-1-en-1-yl)octahydro-5H-pyrrolo[3,4-c]-pyridine-5-carboxamide]	0.066
CC(C(=O)N1CC[C@@H]2CN(C3=CC(=O)CC3)CC2[C@@H]1c1ccc(F)cc1)c1cc(C(F)(F)F)cc(C(F)(F)F)c1 (mixture of isomers) [Example 2, 3-[(3aSR,4RS,7aSR)-5-{2-[3,5-bis(trifluoromethyl)phenyl]propanoyl}-4-(4-fluorophenyl)octahydro-2H-pyrrolo[3,4-c]pyridin-2-yl]cyclopent-2-en-1-one]	0.25
Cc1ccccc1[C@H]1[C@@H]2CN(C(N)=O)C[C@H]2CCN1C(=O)N(C)[C@H](C)c1cc(C(F)(F)F)cc(C(F)(F)F)c1 [Example 11, (3aS,4R,7aS)-N^5-{(1R)-1-[3,5-bis(trifluoromethyl)phenyl]ethyl}-N^5-methyl-4-(2-methylphenyl)tetrahydro-1H-pyrrolo[3,4-c]pyridine-2,5(3H,4H)-dicarboxamide]	0.06
CC(=O)N1CCC(N2C[C@H]3CCN(C(=O)N(C)[C@H](C)c4cc(C(F)(F)F)cc(C(F)(F)F)c4)[C@@H](c4ccc(F)cc4C)[C@@H]3C2)CC1 [Example 36, (3aS,4R,7aS)-2-(1-acetylpiperidin-4-yl)-N-{(1R)-1-[3,5-bis(trifluoromethyl)phenyl]ethyl}-4-(4-fluoro-2-methylphenyl)-N-methyloctahydro-5H-pyrrolo[3,4-c]pyridine-5-carboxamide]	0.108
Cc1ccccc1[C@H]1[C@@H]2CNC[C@H]2CCN1C(=O)N(C)[C@H](C)c1cc(C(F)(F)F)cc(C(F)(F)F)c1 [Example 9, (3aS,4R,7aS)-N-{(1R)-1-[3,5-bis(trifluoromethyl)phenyl]ethyl}-N-methyl-4-(2-methylphenyl)octahydro-5H-pyrrolo[3,4-c]pyridine-5-carboxamide]	0.041

More lines, in order of falling IC50, values ahead:

IC50 [nM]	SMILES
1.7	O=C1C=C(N2C[C@@H]3CCN(C(=O)Cc4cc(C(F)(F)F)cc(C(F)(F)F)c4)[C@H](c4ccc(F)cc4)[C@H]3C2)CC1 (racemic) [Example 1, 3-[(3aSR,4RS,7aSR)-5-{[3,5-bis(trifluoromethyl)phenyl]acetyl}-4-(4-fluorophenyl)octahydro-2H-pyrrolo[3,4-c]pyridin-2-yl]cyclcopent-2-en-1-one]
0.152	Cc1ccccc1[C@H]1[C@@H]2CN(CC(=O)O)C[C@H]2CCN1C(=O)N(C)[C@H](C)c1cc(C(F)(F)F)cc(C(F)(F)F)c1 [Example 16, [(3aS,4R,7aS)-5-{[{(1R)-1-[3,5-bis(trifluoromethyl)phenyl]ethyl}(methyl)amino]carbonyl}-4-(2-methylphenyl)octahydro-2H-pyrrolo[3,4-c]pyridin-2-yl]acetic acid]
0.111	Cc1cc(F)ccc1[C@H]1[C@@H]2CN(C3CCOCC3)C[C@H]2CCN1C(=O)N(C)[C@H](C)c1cc(C(F)(F)F)cc(C(F)(F)F)c1 [Example 35, (3aS,4R,7aS)-N-{(1R)-1-[3,5-bis(trifluoromethyl)phenyl]ethyl}-4-(4-fluoro-2-methylphenyl)-N-methyl-2-(tetrahydro-2H-pyran-4-yl)octahydro-5H-pyrrolo[3,4-c]pyridine-5-carboxamide]
0.089	CC(=O)N1CCC(N2C[C@H]3CCN(C(=O)N(C)[C@H](C)c4cc(C(F)(F)F)cc(C(F)(F)F)c4)[C@@H](c4ccccc4C)[C@@H]3C2)CC1 [Example 22, (3aS,4R,7aS)-2-(1-acetylpiperidin-4-yl)-N-{(1R)-1-[3,5-bis(trifluoromethyl)phenyl]ethyl}-N-methyl-4-(2-methylphenyl)octahydro-5H-pyrrolo[3,4-c]pyridine-5-carboxamide]
0.072	Cc1cc(F)ccc1[C@H]1[C@@H]2CN(C(=O)[C@H](C)O)C[C@H]2CCN1C(=O)N(C)[C@H](C)c1cc(C(F)(F)F)cc(C(F)(F)F)c1 [Example 30, (3aS,4R,7aS)-N-{(1R)-1-[3,5-bis(trifluoromethyl)phenyl]ethyl}-4-(4-fluoro-2-methylphenyl)-2-[(2S)-2-hydroxypropanoyl]-N-methyloctahydro-5H-pyrrolo[3,4-c]pyridine-5-carboxamide]
0.071	Cc1ccccc1[C@H]1[C@@H]2CN(CC(N)=O)C[C@H]2CCN1C(=O)N(C)[C@H](C)c1cc(C(F)(F)F)cc(C(F)(F)F)c1 [Example 15, (3aS,4R,7aS)-2-(2-amino-2-oxoethyl)-N-{(1R)-1-[3,5-bis(trifluoromethyl)phenyl]ethyl}-N-methyl-4-(2-methylphenyl)octahydro-5H-pyrrolo[3,4-c]pyridine-5-carboxamide]
0.048	Cc1cc(F)ccc1[C@H]1C2CN(C(=O)C3CCOCC3)C[C@H]2CCN1C(=O)N(C)[C@H](C)c1cc(C(F)(F)F)cc(C(F)(F)F)c1 (some centres unmarked) [Example 34]
